Data from patent US20070265278A1, “2-PHENYL-INDOLES AS PROSTAGLANDIN D2 RECEPTOR ANTAGONISTS” (Aventis Pharmaceuticals Inc., priority 2005, published 2007).

Biological target: T1, DP receptor (Homo sapiens, UniProt Q13258)
T1 construct: using the human cell line LS174T, which expresses the endogenous DP receptor; endogenous in cells; host or cells: LS174T human cell line
T1 sequence (Q13258 1-359): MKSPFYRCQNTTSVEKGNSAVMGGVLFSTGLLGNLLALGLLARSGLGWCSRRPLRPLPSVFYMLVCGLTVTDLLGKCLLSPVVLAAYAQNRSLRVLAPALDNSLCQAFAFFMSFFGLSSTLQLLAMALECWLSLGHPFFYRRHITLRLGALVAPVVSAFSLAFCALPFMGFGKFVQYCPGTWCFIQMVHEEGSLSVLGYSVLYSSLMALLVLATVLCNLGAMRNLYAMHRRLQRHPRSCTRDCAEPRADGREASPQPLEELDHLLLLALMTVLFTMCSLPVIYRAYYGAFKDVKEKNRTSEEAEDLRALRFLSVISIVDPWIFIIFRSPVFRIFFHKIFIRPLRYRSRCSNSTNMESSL
Experiment: SPA cAMP assay in human LS174 T cells (human DP functional assay)
Assay type: cell-based
Details: inhibition of PGD2 (15 nM)-stimulated cAMP, LS174T cells expressing endogenous DP receptor
Procedure: The inhibitory effects of the compounds according to the invention are assessed in a human DP functional assay. A cAMP assay is employed using the human cell line LS174T, which expresses the endogenous DP receptor. The protocol is similar to that described previously (Wright D H, Ford-Hutchinson A W, Chadee K, Metters K M, The human prostanoid DP receptor stimulates mucin secretion in LS174T cells, Br J Pharmacol. 131(8):1537-45 (2000)).
Protocol for SPA cAMP Assay in Human LS174 T Cells
• PGD2 (Cayman Chemical Cat#12010) • IBMX (Sigma Cat# 5879) • cAMP SPA direct screening assay system (Amersham code RPA 559) • 96-well cell plates (Wallac Cat# 1450-516) • Wallac 1450 Microplate Trilux scintillation counter (PerkinElmer) • Plate sealers • Eppendorf tubes • Dulbecco's Phosphate-Buffered Saline (PBS) (Invitrogen Cat#14040-133) • Distilled water • Vortex • Magnetic stirrer and stirrer bars Reagent Preparation:
All reagents should be allowed to equilibrate to room temperature before reconstitution.
Transfer the contents of the bottle to a 500 mL graduated cylinder by repeated washing with distilled water. Adjust the final volume to 500 mL with distilled water and mix thoroughly.
Dissolve each of the lysis reagents 1 and 2 in 200 mL assay buffer respectively. Leave at room temperature for 20 minutes to dissolve.
Add 30 mL of lysis buffer 2 to the bottle. Gently shake the bottle for 5 minutes.
Add 15 mL of lysis buffer 2 to each vial, and gently mix until the contents are completely dissolved.
Add 14 mL lysis buffer 2 to each vial and gently mix until the contents are completely dissolved.
Preparation of Immunoreagent
• 1) Add equal volumes of tracer, antiserum and SPA anti-rabbit reagent to a bottle, ensuring that a sufficient volume of this mixture is prepared for the desired number of wells (150 μL/well). • 2) Mix thoroughly. • 3) This immunoreagent solution should be freshly prepared before each assay and not re-used. Standard • 1) Add 1 mL lysis buffer 1 and gently mix until contents are completely dissolved. • 2) The final solution contains cAMP at a concentration of 512 pmol/mL. • 3) Label 7 polypropylene or polystyrene tubes, 0.2 pmol, 0.4 pmol, 0.8 pmol, 1.6 pmol, 3.2 pmol, 6.4 pmol and 12.8 pmol. • 4) Pipette 500 μL of lysis buffer 1 into all the tubes. • 5) Into the 12.8 pmol tube pipette 500 μL of stock standard (512 pmol/mL) and mix thoroughly. Transfer 500 μL from 12.8 pmol tube to the 6.4 pmol tube and mix thoroughly. Repeat this doubling dilution successively with the remaining tubes.
6) 50 μL aliquots in duplicate from each serial dilution and the stock standard will give rise to 8 standard levels of cAMP ranging from 0.2-25.6 pmol standard
Add 50 μL of […] IBMX into 100 mL PBS to make a final concentration of 100 μM and sonicate at 30° C. for 20 minutes.
Dissolve 1 mg PGD2 (FW, 352.5) in 284 μL DMSO to make 10 mM stock solution and store at […]. Before each assay, it is freshly prepared. Add 3 μL of 10 mM stock solution to 20 mL DMSO, mix it thoroughly, and transfer 10 mL to 40 mL PBS.
Compound dilution is carried out in Biomex 2000 (Beckman) using Method 1_cAMP DP 11 points.
5 μL of each compound from the 10 mM stock compound plates is transferred to the wells of a 96-well plate respectively as below.
Fill the plate with 45 μL of DMSO except column 7 is filled with 28 μL DMSO. Pipette column 1 thoroughly, and transfer 12 μL into column 7 parallel. Perform 1:10 serial dilution from column 1 to column 6 and from column 7 to column 11 by transfer 5 μL to 45 μL DMSO to make following concentrations:
Fill a new 96-well plate with 247.5 μL of compound dilution buffer. Transfer 2.5 μL of serially diluted compounds from above plate to the new plate (1:100 dilution) as following:
Cell Growth • 1. LS174 T are always grown in MEM (ATCC Cat# 30-2003), 10% FBS (ATCC Cat# 30-2020) and additional 2 mM L-glutamine, at 37° C. and 5% CO2. • 2. Warm 0.05% Trypsin and Versine (Invitrogen Cat# 25300-054) at 37° C. water bath. • 3. […]

| Structure (SMILES) | IC50 [nM] |
| --- | --- |
| O=C(O)Cc1c(-c2ccc(Cl)c(S(=O)(=O)NC3CCCCC3)c2)n(Cc2ccccc2)c2ccccc12 [Example 2(b), [1-Benzyl-2-(4-chloro-3-cyclohexylsulfamoyl-phenyl)-1H-indol-3-yl]-acetic acid] | 42 |
| CN(C1CCCCC1)S(=O)(=O)c1cccc(-c2[nH]c3ccccc3c2CC(=O)O)c1 [Example 10(e), {2-[3-(Cyclohexyl-methyl-sulfamoyl)-phenyl]-1H-indol-3-yl}-acetic acid] | 346 |
| COc1ccc(-c2[nH]c3ccccc3c2CC(=O)O)cc1S(=O)(=O)NC1CCCCC1 [Example 10(i), [2-(3-Cyclohexylsulfamoyl-4-methoxy-phenyl)-1H-indol-3-yl]-acetic acid] | 63 |
| O=C(O)Cc1c(-c2ccc(S(=O)(=O)NC3CCCCC3)c(Cl)c2)[nH]c2ccccc12 [Example 10(j), [2-(3-Chloro-4-cyclohexylsulfamoyl-phenyl)-1H-indol-3-yl]-acetic acid] | 1220 |
| O=C(O)Cc1c(-c2ccc(Cl)c(S(=O)(=O)N3CCCCC3)c2)[nH]c2ccccc12 [Example 1(p), {2-[4-Chloro-3-(piperidine-1-sulfonyl)-phenyl]-1H-indol-3-yl}-acetic acid] | 678 |
| O=C(O)Cc1c(-c2ccc(Cl)c(NS(=O)(=O)c3ccccc3)c2)[nH]c2ccccc12 [Example 13, [2-(3-benzenesulfonylamino-4-chlorophenyl)-1H-indol-3-yl]-acetic acid] | 39 |
| Cn1c(-c2ccc(Cl)c(S(=O)(=O)NC3CCCCC3)c2)c(CCO)c2ccccc21 [Example 9, 2-Chloro-N-cyclohexyl-5-[3-(2-hydroxy-ethyl)-1-methyl-1H-indol-2-yl]-benzenesulfonamide] | 8710 |
| COC(=O)[C@@H](NC(=O)Cc1c(-c2ccc(Cl)c(S(=O)(=O)NC3CCCCC3)c2)[nH]c2ccccc12)C(C)C [Example 3(a), (S)-2-{2-[2-(4-chloro-3-cyclohexylsulfamoyl-phenyl)-1H-indol-3-yl]-acetylamino}-3-methyl-butyric acid methyl ester] | 160 |
| O=C(O)c1c(-c2ccc(Cl)c(S(=O)(=O)NC3CCCCC3)c2)[nH]c2ccccc12 [Example 15, 2-(4-Chloro-3-cyclohexylsulfamoyl-phenyl)-1H-indole-3-carboxylic acid] | 741 |
| Cn1c(-c2ccc(Cl)c(S(=O)(=O)NC3CCCCC3)c2)c(CC(=O)O)c2ccccc21 [Example 2(a), [2-(4-Chloro-3-cyclohexylsulfamoyl-phenyl)-1-methyl-1H-indol-3-yl]-acetic acid] | 52 |
| O=C(O)Cc1c(-c2ccc(Cl)c(S(=O)(=O)NCc3ccc(C(F)(F)F)cc3)c2)[nH]c2ccccc12 [Example 1(y), {2-[4-Chloro-3-(4-trifluoromethyl-benzylsulfamoyl)-phenyl]-1H-indol-3-yl}-acetic acid] | 19 |
| CCCCCCNS(=O)(=O)c1cc(-c2[nH]c3ccccc3c2CC(=O)O)ccc1Cl [Example 1(c), [2-(4-Chloro-3-hexylsulfamoyl-phenyl)-1H-indol-3-yl]-acetic acid] | 31 |

Stronger by IC50, values ahead:

| IC50 [nM] | Structure (SMILES) |
| --- | --- |
| 9.6 | O=C(O)Cc1c(-c2ccc(Cl)c(S(=O)(=O)NC3Cc4ccccc4C3)c2)[nH]c2ccccc12 [Example 1(d), {2-[4-Chloro-3-(indan-2-ylsulfamoyl)-phenyl]-1H-indol-3-yl}-acetic acid] |
| 3 | COc1ccc2[nH]c(-c3ccc(Cl)c(S(=O)(=O)NC4CCCCC4)c3)c(CC(=O)O)c2c1 [Example 10(a), [2-(4-Chloro-3-cyclohexylsulfamoyl-phenyl)-5-methoxy-1H-indol-3-yl]-acetic acid] |
| 3 | O=C(O)Cc1c(-c2ccc(Cl)c(S(=O)(=O)NC3CC4CCC3C4)c2)[nH]c2ccccc12 (centres unmarked) [Example 1(b), {2-[3-(Bicyclo[2.2.1]hept-2-ylsulfamoyl)-4-chloro-phenyl]-1H-indol-3-yl}-acetic acid] |
| 2.2 | O=C(O)Cc1c(-c2ccc(Cl)c(S(=O)(=O)NC3CCCCC3)c2)[nH]c2ccccc12 [Example 1(a), [2-(4-Chloro-3-cyclohexylsulfamoyl-phenyl)-1H-indol-3-yl]-acetic acid] |
| 1 | O=C(O)Cc1c(-c2ccc(Cl)c(S(=O)(=O)NC3CCCCC3)c2)[nH]c2cc(Cl)ccc12 [Example 10(d), [6-Chloro-2-(4-chloro-3-cyclohexylsulfamoyl-phenyl)-1H-indol-3-yl]-acetic acid] |
